Where “and” joins values, the source holds several entries; their conditions need not be identical. Equal entries are not always repeated.
Columns and labels:
BM KSL cells = test: Transendothelial migration assay; assay type: cell-based, mouse
Protocol: For the transendothelial migration assay,VeraVec^TM mouse spleen ECs (Angiocrine Biosciences) were cultured to confluence in […] pore transwells (Corning Incorporated). Transwells were then seeded with 50,000 sorted BM KSL cells in IMDM with 10% FBS, 1% pen-strep, 20 ng/mL TPO, 125 ng/mL SCF, and 50 ng/mL Flt3 ligand with or without 1 µg/mL of DJ001. SDF-1, 500 ng/mL (R&D Systems), was added to the bottom chamber of the transwell. At 18 h post incubation, cells in the bottom chamber were collected and cell counts were performed.

C57BL/6 mice [1] = test: Cytokine analysis in vivo (BM supernatant at day +5); design: species or system mouse; PTN: unit not given beside the values; IFN-g / IL-1a / IL-1b / IL-2 / IL-4 / IL-3 / IL-5 / IL-6 / IL-7 / IL-9 / IL-10 / IL-12(p40) / IL-12(p70) / LIF / IL-13 / LIX / IL-15 / IL-17 / IP-10 / CXCL12 / SCF / TPO / EGF / DKK / G-CSF / Eotaxin / GM-CSF / KC / MCP-1 / MIP-1a / MIP-1b / M-CSF / MIP-2 / MIG / RANTES / VEGF / TNF-a: unit not given here
Protocol: For in vitro cytokine measurements, 3.5 × 10^4 BM KSL cells were irradiated with 300 cGy and cultured in TSF media with and without 1 μg/mL DJ001. Non-irradiated KSL cells were cultured in TSF media with and without 1 μg/mL DJ001. At 12 h of culture, culture supernatants were collected for analysis. For in vivo cytokine measurements, adult C57BL/6 mice were irradiated with 750 cGy TBI and then treated with 5 mg/kg of DJ001 or vehicle, subcutaneously, from day + 1 to day + 5. Non-irradiated mice received the identical regimen of 5 mg/kg DJ001 or vehicle for 5 days. Mice were killed and BM cells were collected into IMDM. Cells were pelleted and the BM supernatant was collected and sent to the UCLA Immune Assessment Core for cytokine analysis. All samples were tested on a mouse 32-plex Cytokine/Chemokine panel platform from EMD Milipore using Luminex’s xMAP® immunoassay technology (Luminex, Inc.). In addition, the following cytokine levels were assessed by solid-phase ELISA assay according to the manufacturer’s description: CXCL12 (R&D Systems), SCF (R&D Systems), Thrombopoietin (TPO) (R&D Systems), PTN (Biomatik), DKK1 (R&D Systems), and EGF (R&D Systems).

C57BL/6 mice [2] = test: 5FU chemotherapy model, hematologic recovery; assay type: in vivo, mouse
Protocol: Ten-week-old female C57BL/6 mice received a single tail vein injection of 250 mg/kg 5FU in 100 μL PBS. Two hours post 5FU injection, mice were administered daily subcutaneous injections of 5 mg/kg (100 μg per mouse) DJ001 or vehicle in a volume of 100 μL for 8 days. DJ001 injections were prepared in PBS, 50% PEG-400, and 10% DMSO. Corresponding vehicle injections contained PBS, 50% PEG-400, and 10% DMSO. Retro-orbital blood was collected on day + 8, + 11, and + 14 after 5FU treatment with capillary pipettes (Fisher Scientific). Complete blood counts were measured using a Hemavet 950 instrument (Drew Scientific).

[3] = 750cGy, Supplementary Figure 6c
[4] = 750cGy, Supplementary Figure 6d
[5] = NI (non-irradiated), Supplementary Figure 6c
[6] = NI (non-irradiated), Supplementary Figure 6d
[7] = day +8 following 250 mg/kg 5FU, 5 mg/kg DJ001 SQ daily
[8] = day +11 following 250 mg/kg 5FU, 5 mg/kg DJ001 SQ daily
[9] = day +14 following 250 mg/kg 5FU, 5 mg/kg DJ001 SQ daily

## O=C(/C=C\Nc1cccc([N+](=O)[O-])c1)c1ccccc1 [DJ001, (Z)-3-((3-nitrophenyl)amino)-1-phenylprop-2-en-1-one]
BM KSL cells; 1 µg/mL DJ001, 18 h
  in vitro migration of BM KSL cells through EC monolayers: did not alter the in vitro migration
BM KSL cells; 1 µg/ml DJ001, 18 hours
  number of cells within the lower chambers, per replicate (Supplementary Figure 8a): 17.5 and 8.74 and 19.1 and 21.8 and 10.9
C57BL/6 mice [1]; 5 mg/kg DJ001 for 5 days
  cytokine levels in BM of non-irradiated mice: no effects on cytokine levels
C57BL/6 mice [1]; [3]
  IFN-g: 0.02
  IL-1a: 32.33 and 26.87 and 17.68
  IL-2: 1.59 and 2.65 and 1.92
  IL-3: 1.4
  IL-4: 1.41
  IL-5: 3.23 and 2.28
  IL-6: 1.83 and 1.7
  IL-9: 198.07 and 228.02 and 160.28
  IL-10: 0.57
  IL-12(p40): 0.61
  IL-12(p70): 3.18
  IL-13: 7.43
  IL-15: 2.73
  IL-17: 0.09
  IP-10: 44.2 and 47.75 and 46.43
  LIX: 516.55 and 495.26 and 507.12
C57BL/6 mice [1]; [4]
  CXCL12: 552 and 624 and 905
  DKK: 169.52 and 249.19 and 307.94
  EGF: 11.77 and 17.58 and 11.6
  Eotaxin: 67.39 and 68.27 and 79.6
  G-CSF: 64.72 and 76.01 and 58.45
  GM-CSF: 15.66
  KC: 22.82 and 26.89 and 24.21
  MCP-1: 8.72 and 10.08 and 6.75
  MIG: 128.05 and 148.17 and 148.91
  MIP-1a: 29.47 and 26.14
  MIP-1b: 3.05
  PTN: 102.04 and 118.97 and 192.81
  RANTES: 2.96 and 2.94
  SCF: 146.274 and 131.091 and 159.522
  TNF-a: 3.15
  TPO: 49.177 and 67.682 and 63.573
  VEGF: 1.01 and 1.11
C57BL/6 mice [1]; [5]
  IL-1b: 0.97
  IL-3: 1.4
  IL-4: 1.41
  IL-5: 2.28
  IL-7: 0.9937 and 1.153
  IL-10: 1.167 and 1.4327
  IL-12(p40): 0.74
  IL-12(p70): 3.18
  IL-13: 7.43 and 9.117
  IL-15: 2.73
  IL-17: 0.21
  IP-10: 33.483 and 30.0231 and 37.7364
  LIF: 0.3842
  LIX: 761.708 and 684.296 and 1083.25
C57BL/6 mice [1]; [6]
  CXCL12: 622.694 and 560.08 and 714.605
  DKK: 277.711 and 227.737 and 332.999
  EGF: 2.362 and 1.271 and 1.363
  Eotaxin: 99.795 and 115.637 and 94.9841
  G-CSF: 0.02
  GM-CSF: 15.66
  KC: 2.085 and 1.462 and 2.044
  M-CSF: 2.427 and 3.036 and 4.571
  MCP-1: 3.63 and 5.244
  MIG: 98.9578 and 70.0219 and 103.204
  MIP-1b: 7.1682 and 4.315
  MIP-2: 21.5628 and 31.4245 and 16.3073
  PTN: 163.391 and 261.361 and 175.154
  RANTES: 4.272 and 4.763 and 5.943
  SCF: 23.6572 and 17.6223 and 24.6635
  TNF-a: 3.15
  TPO: 7.2054 and 5.699 and 7.158
  VEGF: 1.293 and 2.139 and 2.31
C57BL/6 mice [1]; day +5 following 750 cGy TBI
  CXCL12 levels in BM of irradiated mice vs vehicle: modest increase in CXCL12 levels
  PTN levels in BM of irradiated mice vs vehicle: decrease in PTN levels
C57BL/6 mice [2]; day 0 (pre-5FU)
  PB NEU counts per mouse (Figure 2i right panel): 0.64 and 0.92 and 0.54 and 0.52
  PB WBCs per mouse (Figure 2i left panel): 7.24 and 8.98 and 6.9 and 7.26
C57BL/6 mice [2]; [7]
  PB NEU counts per mouse (Figure 2i right panel): 0.01 (2×) and 0.02 (4×) and 0.03
  PB WBCs per mouse (Figure 2i left panel): 0.88 and 0.82 and 0.9 and 1 and 0.86 and 0.8 and 1.44
C57BL/6 mice [2]; [8]
  PB NEU counts per mouse (Figure 2i right panel): 0.08 and 0.14 and 0.11 and 0.12 and 0.07 (2×) and 0.54
  PB WBCs per mouse (Figure 2i left panel): 0.78 and 3.32 and 1.78 and 2.76 and 1.44 and 3.6 and 2.12
C57BL/6 mice [2]; day +14
  PB WBCs and neutrophils vs 5FU control: significantly increased PB WBCs and neutrophils
C57BL/6 mice [2]; [9]
  PB NEU counts per mouse (Figure 2i right panel): 4.15 and 1.27 and 0.57 and 0.4 and 0.82 and 1.88 and 2.76
  PB WBCs per mouse (Figure 2i left panel): 13.36 and 5.12 and 4.72 and 9.58 and 8.92 and 11.92 and 17.98

Source: article PMC6694155, “PTPσ inhibitors promote hematopoietic stem cell regeneration” (Nature Communications, 2019)
